Experimental findings from ChEMBL document CHEMBL5344434 are described below.

Data set [1] can be described thus: Selectivity index, ratio for cytotoxicity against african green monkey Vero E6 cells after 24 hrs to antiviral activity against RVFV MP-12 infected in Vero E6 cells pre-infected with virus for 1 hr followed by compound addition and measured after 24 hrs post infection. The format is toxicity, cell-based, Vero C1008. As to conditions: read-out: Selectivity Index.

Data set [2] can be described thus: Selectivity index, ratio for cytotoxicity against human Huh-7 cells after 48 hrs to antiviral activity against Chikungunya virus ECSA infected in Huh-7 cells expressing GFP pre-infected with virus for 1 hr followed by compound addition and measured after 48 hrs post infection. The data set is classed as toxicity, cell-based. The settings on record: read-out: Selectivity Index.

A short description of data set [3]: Selectivity index, ratio for cytotoxicity against human Huh-7 cells after 24 hrs to antiviral activity against Chikungunya virus ECSA infected in Huh-7 cells expressing GFP pre-infected with virus for 1 hr followed by compound addition and measured after 24 hrs post infection. The data set is classed as toxicity, cell-based. The settings on record: read-out: Selectivity Index.

Data set [4] is described as follows: Selectivity index, ratio for cytotoxicity against african green monkey Vero E6 cells after 48 hrs to antiviral activity against RVFV MP-12 infected in Vero E6 cells pre-infected with virus for 1 hr followed by compound addition and measured after 48 hrs post infection. The data set is classed as toxicity, cell-based, Vero C1008. As to conditions: read-out: Selectivity Index.

Data set [5] can be described thus: Selectivity index, ratio for cytotoxicity against human HepG2 cells after 24 hrs to antiviral activity against HEV Kernow-C1 infected in gaussia luciferase transfected HepG2 cells pre-infected with virus for 4 hrs followed by compound addition and measured after 24 hrs post infection. The settings on record: read-out: Selectivity Index. The format is toxicity, cell-based.

Data set [6] in a line: Selectivity index, ratio for cytotoxicity against african green monkey Vero E6 cells after 24 hrs to antiviral activity against SARS-CoV-2 2019-nCoV Muc-IMB-1 infected in Vero E6 cells pre-infected with virus for 1 hr followed by compound addition and measured after 24 hrs post infection. The format is toxicity, cell-based, Vero C1008. As to conditions: read-out: Selectivity Index.

In data set [7] the test system is Vero C1008. The data set can be described thus: Cytotoxicity against african green monkey Vero E6 cells after 48 hrs by MTT assay. The format is toxicity, cell-based. The settings on record: chlorocebus sabaeus, vero c1008, 48 h. Background: Tetrazolium assays rely on reduction of a dye to a coloured formazan, in cell work by metabolically active cells.
Data set [8] can be described thus: Selectivity index, ratio for cytotoxicity against human HepG2 cells after 48 hrs to antiviral activity against HEV Kernow-C1 infected in gaussia luciferase transfected HepG2 cells pre-infected with virus for 4 hrs followed by compound addition and measured after 48 hrs post infection. The format is toxicity, cell-based. The settings on record: read-out: Selectivity Index.

Data set [9] in a line: Selectivity index, ratio for cytotoxicity against african green monkey Vero E6 cells after 48 hrs to antiviral activity against SARS-CoV-2 2019-nCoV Muc-IMB-1 infected in Vero E6 cells pre-infected with virus for 1 hr followed by compound addition and measured after 48 hrs post infection. The data set is classed as toxicity, cell-based, Vero C1008. As to conditions: read-out: Selectivity Index.

Consider `CONC(=O)[C@H]1[C@@H](O)[C@@]2(O)c3c(Cl)cc(Br)cc3O[C@@]2(c2ccc(OC)cc2)[C@@H]1c1ccccc1` (racemic), for which the selectivity ratio at 24 h in data set [1] turned out to be 23.8; in data set [3], 402; in data set [5], 123; in [6], 19.5. In addition, the selectivity ratio at 48 h was 317 in [2], 1.7 in data set [4], 5.7 in data set [8] and 0.9 in data set [9]. Further, the cytotoxic concentration (CC50) in data set [7] was determined as 176 nM.

By CC50 is commonly meant the concentration giving 50% cytotoxicity.
